Some test systems named below: A498 renal; A549 NSCLC; ACHN renal; BT-549 breast; CCRF-CEM leukemia; DU-145 prostate; HCC-2998 colon; IGROV1 ovarian; NCI-H23 lung; NCI/ADR-RES ovarian; OVCAR-4 ovarian; OVCAR-5 ovarian; PC-3 prostate; SF-539 CNS; SK-MEL-28 melanoma; SW-620 colon; UACC-257 melanoma; EKVX NSCLC; MDA-MB-435; SF-295 CNS.
What all share (test): growth of human tumour cells (NCI), 48 h

The structures appear in SMILES notation.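 Dose response: 5 concentrations. Exposure: 48 h. Format: 96-well plates. Endpoint: linear interpolation; highest concentration if not reached. TGI: total growth inhibition.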

In the case of `O=c1cc(NNc2ccccc2F)[nH]c(=O)[nH]1`, the TGI in the test on A498 renal was more than 100 µM; in the test on A549 NSCLC, more than 100 µM; in the test on ACHN renal it was 32.3 µM; in the test with BT-549 breast, 31.8 µM; in the test on CCRF-CEM leukemia it was 47.6 µM; in the test on DU-145 prostate, more than 100 µM. Besides, the TGI in the test with HCC-2998 colon is 34.9 µM; in the test on IGROV1 ovarian it was 30.4 µM; with NCI-H23 lung, 31.6 µM; in the test with NCI/ADR-RES ovarian, 31.4 µM; with OVCAR-4 ovarian, 31.5 µM; in the test on OVCAR-5 ovarian it was 38.7 µM. The TGI in the test on PC-3 prostate was found to be 32.9 µM; in the test on SF-539 CNS, 30.7 µM; in the test on SK-MEL-28 melanoma it was 35.1 µM; with SW-620 colon it was 31.9 µM; with UACC-257 melanoma, 32 µM.

On to `CN(C)/C=N\c1nncc2[nH]cnc12`, for which the TGI in the test with A498 renal, in the test on A549 NSCLC, in the test with ACHN renal, with BT-549 breast, in the test with CCRF-CEM leukemia and with EKVX NSCLC was more than 100 µM each time. Moreover, the TGI in the test on HCC-2998 colon, in the test with IGROV1 ovarian, in the test with MDA-MB-435, in the test with NCI-H23 lung, with NCI/ADR-RES ovarian and in the test with OVCAR-4 ovarian was more than 100 µM each time. Also, the TGI in the test on OVCAR-5 ovarian, in the test with PC-3 prostate, with SF-295 CNS, with SF-539 CNS, in the test with SK-MEL-28 melanoma and in the test on SW-620 colon was more than 100 µM each time. This compound registered a TGI in the test with UACC-257 melanoma of more than 100 µM.

Take `CSc1nn(C)cc2nc(C)nc1-2`: the TGI in the test on A498 renal, with A549 NSCLC, in the test on ACHN renal, in the test with BT-549 breast, with CCRF-CEM leukemia and in the test with DU-145 prostate was more than 100 µM throughout. Further, the TGI with EKVX NSCLC, in the test on IGROV1 ovarian, with MDA-MB-435, with NCI-H23 lung, in the test with NCI/ADR-RES ovarian and with OVCAR-5 ovarian was more than 100 µM each time. Besides, the TGI in the test on PC-3 prostate, in the test on SF-295 CNS, in the test on SF-539 CNS, with SK-MEL-28 melanoma, in the test with SW-620 colon and in the test on UACC-257 melanoma was more than 100 µM throughout.

Turning to `O=C(O)C1CCCCN1C(=O)Cc1c[nH]c2ccccc12` (stereo not given), the TGI in the test with A549 NSCLC, in the test with ACHN renal, in the test on BT-549 breast, in the test on CCRF-CEM leukemia, with DU-145 prostate and with EKVX NSCLC was more than 100 µM each time. In addition, the TGI in the test on HCC-2998 colon, in the test on IGROV1 ovarian, with MDA-MB-435, in the test on NCI-H23 lung, in the test with NCI/ADR-RES ovarian and in the test with OVCAR-4 ovarian was more than 100 µM throughout. Moreover, the TGI in the test with OVCAR-5 ovarian, in the test with PC-3 prostate, in the test with SF-295 CNS, with SF-539 CNS, in the test on SK-MEL-28 melanoma and with SW-620 colon was more than 100 µM in each case. Also, the TGI with UACC-257 melanoma is more than 100 µM.

For the compound `O=C1NC(=S)NC(=O)C1=Cc1ccc(-c2ccccc2)cc1`, the TGI in the test with A549 NSCLC, in the test with ACHN renal, in the test with BT-549 breast, with CCRF-CEM leukemia, in the test on DU-145 prostate and in the test on EKVX NSCLC was more than 100 µM in each case. Also, the TGI in the test with HCC-2998 colon, in the test with IGROV1 ovarian, in the test on MDA-MB-435, in the test with NCI-H23 lung, in the test with NCI/ADR-RES ovarian and with OVCAR-4 ovarian was more than 100 µM in each case. Moreover, the TGI with OVCAR-5 ovarian, in the test on PC-3 prostate, in the test on SF-295 CNS, in the test with SF-539 CNS, in the test on SW-620 colon and with UACC-257 melanoma was more than 100 µM each time.

In the case of `NC(N)=NS(=O)(=O)c1ccc(NNC(=O)c2cccc3c(=O)c4ccccc4[nH]c23)cc1`, the TGI in the test with A549 NSCLC was more than 100 µM; in the test on ACHN renal it was 61.4 µM; with BT-549 breast it was 73.6 µM; in the test with CCRF-CEM leukemia it was more than 100 µM; in the test with DU-145 prostate, more than 100 µM; in the test with EKVX NSCLC, 62.2 µM. Also, the TGI in the test on HCC-2998 colon is 38.3 µM; in the test with IGROV1 ovarian it was more than 100 µM; with MDA-MB-435, 57.5 µM; in the test with NCI-H23 lung, 87 µM; in the test on NCI/ADR-RES ovarian, more than 100 µM; in the test with OVCAR-4 ovarian it was 83.5 µM. Besides, the TGI in the test with OVCAR-5 ovarian is more than 100 µM; in the test with PC-3 prostate it was 89.7 µM; in the test on SF-295 CNS it was more than 100 µM; in the test with SF-539 CNS, 58.7 µM; in the test with SK-MEL-28 melanoma, 65.9 µM; in the test with SW-620 colon it was more than 100 µM. In the test with UACC-257 melanoma, this compound gave a TGI of 74.8 µM.

With `CCc1cc2c(c3c1CCCC3)CC1(Cc3ccc(C(=O)OC)cc3C1)C2` (stereo not given), the TGI is more than 100 µM in the test with A549 NSCLC; more than 100 µM in the test on ACHN renal; more than 100 µM with BT-549 breast; 56 µM in the test on CCRF-CEM leukemia; more than 100 µM in the test with DU-145 prostate; more than 100 µM in the test with EKVX NSCLC. Also, the TGI in the test on HCC-2998 colon, in the test with IGROV1 ovarian, in the test on MDA-MB-435, with NCI-H23 lung, in the test with NCI/ADR-RES ovarian and with OVCAR-4 ovarian was more than 100 µM throughout. Besides, the TGI with OVCAR-5 ovarian, in the test with PC-3 prostate, in the test on SF-295 CNS, with SF-539 CNS, in the test with SK-MEL-28 melanoma and with SW-620 colon was more than 100 µM throughout. This compound also yielded a TGI with UACC-257 melanoma of more than 100 µM.

In the case of `CC(C)CCC[C@@H](C)C1CCC2[C@@H]3CCC4C[C@@H](NS(C)(=O)=O)CC[C@]4(C)C3CC[C@@]21C` (stereo not given in full), the TGI with A549 NSCLC, with BT-549 breast, with CCRF-CEM leukemia, in the test with DU-145 prostate, with EKVX NSCLC and with IGROV1 ovarian was more than 100 µM in each case. For the same compound, the TGI in the test on MDA-MB-435, with NCI-H23 lung, with NCI/ADR-RES ovarian, in the test with OVCAR-4 ovarian, in the test on PC-3 prostate and in the test on SF-295 CNS was more than 100 µM in each case. Moreover, the TGI in the test with SF-539 CNS, with SK-MEL-28 melanoma, in the test on SW-620 colon and in the test on UACC-257 melanoma was more than 100 µM throughout.

Source of the values: PubChem BioAssay (NCI).
